Experimental findings from patent publication EP4759817A1, “HETEROARYL COMPOUND, PREPARATION METHOD THEREFOR, AND USE THEREOF IN MEDICINE” (Jiangsu Hengrui Pharmaceuticals Co., Ltd., priority 2023, dated 2025) are described below.

For data set [1], the target named is T1, Recombinant human PRMT5: MEP50 protein (Homo sapiens, UniProt O14744).
T1 construct: purchased active motif 31521
As to the kind of experiment: Inhibitory activity against human PRMT5 enzymatic activity (HTRF quantification of SAH, +MTA). Type of data set: biochemical. The following applies: +1 µM MTA; histone H4 peptide substrate (1-21), SAM; 37°C 120 min. The procedure:
• 1. Recombinant human PRMT5: MEP50 protein (active motif, 31521) • 2. EPIgeneous Methyltransferase kit (cisbio, 62SAHPEH) • 3. 96-well plate (Sangon Biotech, F610960-0010) • 4. 384-well white plate (Perkin Elmer, 6007290) • 5. 1 M Tris-HCl [pH 8.5] (Sangon Biotech, B548141) • 6. Histone H4 peptide substrates (1-21) (BPS bioscience, 52014) • 7. 5'-deoxy-5'-(methylthio)adenosine (Aladdin, D168979-25 mg) • 8. Tween-20 (Sangon Biotech, A100777-0500) • 9. DMSO (Sigma, D2650) • 10. Incubator (Shanghai Boxun Medical Biological Instrument Corp.) • 11. PHERAstar FS microplate reader (BMG Labtech)
PRMT5 can induce the transfer of a methyl group from S-adenosylmethionine (SAM) to a histone H4 peptide substrate (1-21), generating S-adenosylhomocysteine (SAH). In this experiment, the amount of SAH produced in the reaction is quantified using a Homogeneous Time-Resolved Fluorescence (HTRF) method to evaluate the inhibitory activity of compounds against PRMT5 enzymatic activity.
The sample diluent containing (or not containing) 1 µM 5 '-deoxy-5' - (methylthiyl) adenosine (MTA) was prepared using the EPIgeneous Diluent Buffer from the EPIgeneous Methyltransferase kit. With reference to the instructions, SAM and SAH standards were serially diluted and dispensed at 10 µL per well (in duplicate for each concentration). 2 µL of EPIgeneous Detection Buffer 1 was added to each well, and the plate was centrifuged, shaken to mix thoroughly, and placed at room temperature for 10 min. The SAH d2 Reagent was diluted 32-fold with EPIgeneous Detection Buffer 2, and 4 µL of the diluted SAH-d2 solution was added to each well. The plate was centrifuged and shaken for 2 min to mix thoroughly. The SAH Tb Cryptate Antibody was diluted 50-fold in EPIgeneous Detection Buffer 2. 4 µL of the diluted Tb Cryptate Antibody solution was added to each well, and the plate was centrifuged, shaken for 2 min to mix thoroughly, and left to stand at room temperature for 60 min, followed by reading on a PHERAstar FS microplate reader to obtain the 665/620 ratio. Plotting SAH concentration against the ratio to generate an x-y curve yields a corresponding calculation formula.
Reaction buffer (1×): 50 mM Tris-HCl [pH 8.5], 1 mM DTT, 0.005% Tween-20.
Compound preparation: a 20 mM solution of test compound in 100% DMSO was diluted in 100% DMSO to 1 mM as the highest concentration, and the solution at this concentration was then subjected to a 10-point, 3-fold serial dilution in 100% DMSO in a 96-well plate. Wells containing 100% DMSO served as the blank control. The above-described serially diluted compounds and the 100% DMSO were diluted 20-fold with the reaction buffer to prepare 5× compound solutions, which were mixed thoroughly for use.
The PRMT5:MEP50 was diluted in the reaction buffer to a final concentration of 12.5 nM. Then, 4 µL of the 12.5 nM PRMT5:MEP50 solution was added to each well of a 384-well plate. Wells containing 4 µL of the reaction buffer served as the negative control wells. 2 µL of the 5× compound solution was added to each well. For the negative control wells (no enzyme, no compound) and the positive control wells (no compound), 2 µL of 5% DMSO was added. The plate was sealed with a membrane, centrifuged, shaken for 2 min to mix thoroughly, and placed at room temperature for 20 min.
Preparation of substrate mixture solution: The substrate mixture solution containing 1.5 µM histone H4 peptide substrate (1-21) and 2.5 µM SAM, or 1.5 µM histone H4 peptide substrate (1-21), 2.5 µM SAM and 2.5 µM MTA was prepared in the reaction buffer.
The reaction was initiated by adding 4 µL of the substrate mixture solution (-/+ MTA) to each well. The plate was sealed with a membrane, centrifuged, shaken for 2 min to mix thoroughly, and incubated at 37°C for 120 min in a constant temperature incubator.
Detection: The detection was performed by using the EPIgeneous Methyltransferase kit. […]

For a further data set, the system named is HCT116 MTAP-/- cells. Kind of data set: HCT116 MTAP-/- cell proliferation assay (CellTiter-Glo, 10 days). Type of data set: cell-based. The following applies: Homo sapiens, HCT-116, 240 h, growth inhibition, CTG assay Day 10. From the text: • I. Experimental materials and instruments • 1. HCT116 cell line (Nanjing Kebai Biotechnology Co., Ltd., CBP60028) • 2. HCT116 MTAP-/- cell line (Nanjing Kebai Biotechnology Co., Ltd., CBP75002) • 3. DMSO (Sigma, D2650) • 4. McCoy's 5A medium (Gibco, 16600-082) • 5. Foetal bovine serum (FBS) (Gibco, 10091148) • 6. Phosphate buffered saline (DPBS) pH 7.4 (Gibco, 14190-144) • 7. Pen strep (PS) (Gibco, 15140-122) • 8. 0.25% Typsin-EDTA (1×) (Gibco, 25200-072) • 9. CellTiter-Glo® Luminescent Cell Viability Assay (Promega, G7572) • 10. 96-well round-bottom plate (JET, TCP002096) • 11. 96-well black clear bottom plate (Hangzhou Xinyou Biotechnology Co., Ltd., 060096) • 12. 1.2 mL 96-well deep well plate, clear, sterile, square-well, V-bottom (Titan, 02089063) • 13. 15-mL centrifuge tube (Titan) • 14. Biosafety cabinet (Thermo, 1300AII) • 15. Cell counter (Countstar, IC1000) • 16. Incubator (Thermo, I160) • 17. Centrifuge (Beckman coulter, Allegra X-12 centrifuge) • 18. PHERAstar FS microplate reader (BMG Labtech) • II. Experimental procedure • 1. Cell plating (Day 0) • a) The cell morphology was observed under a microscope to ensure confluence reached approximately 90%. • b) The cell supernatant was aspirated, the cells were washed once with PBS, and then the PBS was removed; and the cells were digested by adding an appropriate amount of trypsin, and left to stand at 37°C for 3 minutes. • c) The digestion was terminated by adding an equal volume of McCoy's 5A medium containing 10% FBS, and the cell suspension was collected and centrifuged at 300 g for 3 minutes; and the cells were resuspended in an appropriate amount of fresh medium. • d) The resuspended cell suspension was taken for counting. • e) The cell suspension was diluted to 1e4/mL using McCoy's 5A medium containing 10% FBS, and seeded at 50 µL per well, corresponding to 500 cells/well for HCT116 and 500 cells/well for HCT116 MTAP-/-. • f) The cell plate was placed in a 37°C, 5% carbon dioxide incubator and incubated overnight. • 2. Compound treatment (Day 1) • a) Each compound was serially diluted in DMSO to generate a 9-point concentration gradient (starting concentration: 10000 µM, 3-fold dilution; the highest concentration may be adjusted individually based on IC50 of different compounds); for example, in a 96-well round-bottom compound-dilution plate, 5 µL of the compound was sequentially diluted into 10 µL of DMSO. • b) Each concentration point of every compound was then diluted 250-fold into the corresponding volume of McCoy's 5A medium. • c) To each cell plate, 50 µL of the diluted compound solution as described above was added sequentially to the cell supernatant (50 µL/well). • d) The compound-treated cell plate was placed in a 37°C, 5% carbon dioxide incubator and incubated. • 3. Re-digestion, re-plating and compound treatment (Day 5) • a) After 5 days of compound treatment, the compound-containing medium was aspirated, and the cells were rinsed once with PBS (100 µL/well); and the PBS was removed immediately. • b) The cells were digested by adding 25 µL of trypsin and incubated at 37°C for 3 minutes, and then the digestion was terminated by adding 175 µL/well of McCoy's 5A medium containing 10% FBS. • c) The cells were mixed thoroughly using a pipette, and re-plated at 1 : 20; and specifically, 10 µL of the cell suspension was aspirated to a new 96-well plate (pre-filled with 40 µL of McCoy's 5A medium containing 10% FBS. • d) Compounds were prepared and added according to steps a) to c) in Section 2, with 50 µL added per well. • e) The compound-treated cell plate was placed in a 37°C, 5% carbon dioxide incubator and incubated. • 4. […]

The nature of data set [2]: Pharmacokinetic evaluation in Nu/Nu mice (plasma, LC-MS/MS). The conditions noted are these: mouse, in vivo, po, i.g., 100 mg/kg. Type of data set: in vivo. On the procedure: Using Nu/Nu mice as the test animals, the plasma concentrations of the example compounds at different time points were determined by LC-MS/MS following oral gavage (i.g.) administration. The pharmacokinetic behaviours of the compounds of the present disclosure in Nu/Nu mice were investigated, and their pharmacokinetic profiles were evaluated.
Compound 1-p1, compound 2-p1, compound 8-p1 and comparative example 1.
A total of 36 female Nu/Nu mice (supplied by Vital River Laboratory Animal Technology Co., Ltd.) were randomly divided into 4 groups.
An appropriate amount of each test compound was weighed and dissolved in 5% DMSO+20% PEG400+70% (10% TPGS)+5% (1% HMPC K100LV) to prepare a 10 mg/mL colourless clear solution.
The administration dosage was 100 mg/kg, and the administration volume was 10 mL/kg.
Mice were not fasted. After oral gavage administration, blood (0.1 mL) was collected from the orbital cavity before administration, and at 0.25 h, 0.5 h, 1.0 h, 2.0 h, 4.0 h, 6.0 h, 8.0 h, 11.0 h and 24.0 h after administration. The blood was placed into EDTA-K2 anticoagulant tubes and centrifuged at 10000 rpm for 1 minute (4°C) to separate plasma. The plasma was separated within 1 h and stored at -20°C until analysis. The entire process from blood collection to centrifugation was performed in ice bath conditions.
Determination of test compound contents in plasma of Nu/Nu mice after administration of different compounds: To 20 µL of plasma samples from each time point in Nu/Nu mice, 200 µL of acetonitrile and 25 µL of verapamil (100 ng/mL) were added. The mixture was vortex-mixed for 5 minutes and centrifuged at 4000 rpm for 15 minutes. 90 µL of water and 90 µL of the supernatant were vortex-mixed for 5 minutes. 2 µL (for compound 1-p1), 2 µL (for compound 2-p1), 1 µL (for compound 8-p1), or 0.5 µL (for comparative example 1) of the supernatant was taken for LC-MS/MS analysis receptively.

T1 sequence (O14744 whole entry): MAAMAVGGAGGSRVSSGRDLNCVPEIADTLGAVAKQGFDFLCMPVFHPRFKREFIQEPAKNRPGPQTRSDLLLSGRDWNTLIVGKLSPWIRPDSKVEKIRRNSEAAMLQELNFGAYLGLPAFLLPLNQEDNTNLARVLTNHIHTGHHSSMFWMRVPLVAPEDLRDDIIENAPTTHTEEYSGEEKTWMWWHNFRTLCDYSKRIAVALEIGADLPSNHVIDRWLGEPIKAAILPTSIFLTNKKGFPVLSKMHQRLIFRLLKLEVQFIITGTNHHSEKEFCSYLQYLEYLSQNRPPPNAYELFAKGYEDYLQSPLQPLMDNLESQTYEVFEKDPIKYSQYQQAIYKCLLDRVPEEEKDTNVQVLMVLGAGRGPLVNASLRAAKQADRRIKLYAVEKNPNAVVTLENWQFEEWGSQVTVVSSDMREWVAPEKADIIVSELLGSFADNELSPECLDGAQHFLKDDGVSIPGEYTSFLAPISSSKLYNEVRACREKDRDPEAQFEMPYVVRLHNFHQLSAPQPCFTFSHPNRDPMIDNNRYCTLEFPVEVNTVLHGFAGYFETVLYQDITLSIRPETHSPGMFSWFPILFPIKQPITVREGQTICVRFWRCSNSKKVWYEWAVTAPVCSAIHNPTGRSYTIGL
T1 sequence (Q9BQA1 whole entry partner): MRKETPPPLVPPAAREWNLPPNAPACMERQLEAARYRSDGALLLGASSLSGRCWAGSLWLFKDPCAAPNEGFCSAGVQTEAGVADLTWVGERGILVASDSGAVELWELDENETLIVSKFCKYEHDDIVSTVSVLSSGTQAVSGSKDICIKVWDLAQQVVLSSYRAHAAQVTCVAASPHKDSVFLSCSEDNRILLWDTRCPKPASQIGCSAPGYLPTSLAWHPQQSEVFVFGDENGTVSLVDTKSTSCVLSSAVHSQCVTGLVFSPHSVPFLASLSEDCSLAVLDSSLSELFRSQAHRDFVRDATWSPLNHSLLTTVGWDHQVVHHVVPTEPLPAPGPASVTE

As to `[2H]C([2H])([2H])n1ncc(-c2ccc3c(=O)[nH]nc(CN)c3c2)c1-c1c(F)cc2c(c1C#N)OCC21CC1` [Compound 12, 6-(4-(4-(aminomethyl)-1-oxo-1,2-dihydrophthalazin-6-yl)-1-(methyl-d3)-1H-pyrazol-5-yl)-5-fluoro-2H-spiro[benzofuran-3,1'-cyclopropane]-7-carbonitrile], the IC50 in data set [1] was determined as 6.39 nM. On the same count and under the same terms, the same measure for `[2H]C([2H])([2H])n1ncc(-c2ccc3c(=O)[nH]nc(CN)c3c2)c1-c1c(F)cc2c(c1C#N)N1CCC[C@H]1CO2` (single isomer, unassigned) [Compound 8-p2]: 3.86 nM. `Cn1ncc(-c2ccc3c(=O)[nH]nc(CN)c3c2)c1-c1c(F)cc2c(c1C#N)OCCO2` (atropisomer, axis not shown) [Comparative example 1, reference compound] yielded an IC50 in the data set on HCT116 MTAP-/- cells of 70.8 nM. Also, the Vd/F in data set [2] (read-out: Apparent volume of distribution V/F) is 132 L/kg. In addition, in data set [2] (read-out: Area under the curve AUC0-t), the AUC(0-t) is 1720 ng·h/mL. Further, the CL/F in data set [2] (read-out: Clearance CL/F) amounted to 960 mL/min/kg. For the same compound, the half-life in data set [2] (read-out: Half life T1/2 (converted)) is 1.6 h. Further, in data set [2] (read-out: Plasma concentration Cmax), the Cmax is 657 ng/mL. `[2H]C([2H])([2H])n1ncc(-c2ccc3c(=O)[nH]nc(CN)c3c2)c1-c1c(F)cc2c(c1C#N)N1CCC[C@@H]1CO2` (single isomer, unassigned) [Compound 5-p2]: in data set [1], the half-inhibitory concentration (IC50) stood at 4.91 nM.

Take `[2H]C([2H])([2H])n1ncc(-c2ccc3c(=O)[nH]nc(CN)c3c2)c1-c1c(F)cc2c(c1C#N)N1CCC[C@@H]1CO2` (single isomer, unassigned) [Compound 5-p1]: the half-maximal inhibitory concentration (IC50) in data set [1] worked out at 7.67 nM. Same read-out and setting: the same measure for `[2H]C([2H])([2H])n1ncc(-c2ccc3c(=O)[nH]nc(CN)c3c2)c1-c1c(F)cc2c(c1C#N)O[C@H]1CC[C@H]1O2` (single isomer, unassigned) [Compound 2-p3]: 5.31 nM; for `[2H]C([2H])([2H])n1ncc(-c2ccc3c(=O)[nH]nc(CN)c3c2)c1-c1c(F)cc2c(c1C#N)O[C@@H]1CC[C@@H]1O2` (single isomer, unassigned) [Compound 2-p4]: 5.87 nM; for `Cn1ncc(-c2ccc3c(=O)[nH]nc(CN)c3c2)c1-c1c(F)cc2c(c1C#N)O[C@@H]1CC[C@@H]1O2` (atropisomer, axis not shown; (P)) [Compound 1-p4, (P)-(2aR,8aS)-5-(4-(4-(aminomethyl)-1-oxo-1,2-dihydrophthalazin-6-yl)-1-methyl-1H-pyrazol-5-yl)-6-fluoro-1,2,2a,8a-tetrahydrobenzo[b]cyclobuta[e][1,4]dioxine-4-carbonitrile]: 5.48 nM.
